The values that follow come from patent US20210269434A1, “TRICYCLIC COMPOUNDS AS INHIBITORS OF KRAS” (Incyte Corporation, priority 2020, published 2021).

The target of one assay is KRAS G12C (Homo sapiens, UniProt P01116, G12C). The experiment in a line: GDP-GTP exchange assay (KRAS_G12C exchange). It counts as biochemical. The conditions noted are these: bodipy-GDP loaded KRAS G12C 2.5 nM, SOS1 150 nM, GppNHp; 2 hours pre-incubation, 2 hours reaction; read-out: G12C_exchange. A digest of the protocol:
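Fluorescence exchange of bodipy-GDP for GppNHp, SOS1-driven, read at 485/520 nm; IC50 from four-parameter variable-slope fit. Both mutants used 2.5 nM final labelled protein and a 2 h compound pre-incubation. G12C reaction had 500 uM GppNHp and 150 nM SOS1 for 2 h; G12D ran 4 h.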

The subject of assay [1] is MIA PaCa-2 (KRAS G12C) cells. The experiment in a line: Cellular pERK HTRF assay (KRAS_G12C pERK). In kind it is cell-based, human. The conditions noted are these: read-out: G12C_pERK. The method, boiled down:
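Phospho-ERK1/2 HTRF readout (665 and 620 nm) in lysed MIA PaCa-2 cells, antibodies incubated overnight at room temperature. Cells seeded the day before and treated with G12C compounds for 4 h at 37 °C; IC50 fitted to percent inhibition against log inhibitor concentration.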

Where [2] appears, read: Homo sapiens, MIA PaCa-2, 4 hours incubation.

Structures are written as SMILES. Where two headings read alike, the source gives them in different places.

Chain of KRAS G12C (P01116 1-188 isoform P01116-2 G12C): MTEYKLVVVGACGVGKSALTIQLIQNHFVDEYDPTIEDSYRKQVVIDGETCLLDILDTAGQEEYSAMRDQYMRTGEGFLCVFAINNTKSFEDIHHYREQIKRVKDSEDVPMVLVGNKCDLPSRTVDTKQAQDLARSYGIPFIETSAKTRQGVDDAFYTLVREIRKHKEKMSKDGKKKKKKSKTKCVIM

In the case of `Cc1cccc(-c2c(C(F)(F)F)cc3c(nc(N4CC(C)(N(C)C)C4)c4nnn([C@H]5CCN(C(=O)/C=C/CN(C)C)[C@H](CC#N)C5)c43)c2F)c1Cl` [Example 237, 2-((2S,4S)-4-(7-(2-chloro-3-methylphenyl)-4-(3-(dimethylamino)-3-methylazetidin-1-yl)-6-fluoro-8-(trifluoromethyl)-1H-[1,2,3]triazolo[4,5-c]quinolin-1-yl)-1-((E)-4-(dimethylamino)but-2-enoyl)piperidin-2-yl)acetonitrile], the IC50 (on KRAS G12C; in assay [1] (setting [2])) was no more than 100 nM in each case.
For the compound `C=CC(=O)N1CCC(n2nnc3c(N4CC(C)(N(C)C)C4)nc4c(F)c(-c5cccc6cccc(Cl)c56)c(Cl)cc4c32)C[C@H]1CC#N` (single isomer, unassigned) [Example 216a], the IC50 (at KRAS G12C; in assay [1] (setting [2])) was no more than 100 nM in each case.
Turning to `CC#CC(=O)N1CC[C@H](n2nnc3c(N4CC(C)(N(C)C)C4)nc4c(F)c(-c5cccc(C)c5Cl)c(C)cc4c32)C[C@H]1CC#N` [Example 258, 2-((2S,4S)-1-(but-2-ynoyl)-4-(7-(2-chloro-3-methylphenyl)-4-(3-(dimethylamino)-3-methylazetidin-1-yl)-6-fluoro-8-methyl-1H-[1,2,3]triazolo[4,5-c]quinolin-1-yl)piperidin-2-yl)acetonitrile], the IC50 (on KRAS G12C; in assay [1] (setting [2])) was no more than 100 nM throughout.
Regarding `C=CC(=O)N1CC[C@H](n2cnc3c(N4CC(N(C)C)C4)nc4c(F)c(-c5cccc(F)c5C)c(Cl)cc4c32)C[C@H]1CC#N` [Example 18, 2-((2S,4S)-1-acryloyl-4-(8-chloro-4-(3-(dimethylamino)azetidin-1-yl)-6-fluoro-7-(3-fluoro-2-methylphenyl)-1H-imidazo[4,5-c]quinolin-1-yl)piperidin-2-yl)acetonitrile], the IC50 (on KRAS G12C; in assay [1] (setting [2])) was no more than 100 nM each time.
Consider `C=CC(=O)N1CC[C@H](n2nnc3c(OC[C@@H]4CCCN4C)nc4c(Cl)c(-c5cc(F)cc6cccnc56)c(Cl)cc4c32)C[C@H]1CC#N` (single isomer, unassigned) [Example 289a], for which the IC50 (on KRAS G12C; in assay [1] (setting [2])) was no more than 100 nM throughout.
As to `C=CC(=O)N1CC[C@H](n2cnc3c(N4CC(N(C)C)C4)nc4c(F)c(-c5cc(O)cc6ccccc56)c(Cl)cc4c32)C[C@H]1C(N)=O` [Example 21, (2S,4S)-1-acryloyl-4-(8-chloro-4-(3-(dimethylamino)azetidin-1-yl)-6-fluoro-7-(3-hydroxynaphthalen-1-yl)-1H-imidazo[4,5-c]quinolin-1-yl)piperidine-2-carboxamide], the IC50 (at KRAS G12C; in assay [1] (setting [2])) was no more than 100 nM in each case.
With `Cc1cc2c(nc(N3CC(C)(N(C)C)C3)c3nnn([C@H]4CCN(C(=O)/C=C/C(F)F)[C@H](CC#N)C4)c32)c(F)c1-c1cccc(Cl)c1C` [Example 102, 2-((2S,4S)-4-(7-(3-chloro-2-methylphenyl)-4-(3-(dimethylamino)-3-methylazetidin-1-yl)-6-fluoro-8-methyl-1H-[1,2,3]triazolo-[4,5-c]quinolin-1-yl)-1-((E)-4,4-difluorobut-2-enoyl)-piperidin-2-yl)acetonitrile], the IC50 (at KRAS G12C; in assay [1] (setting [2])) was no more than 100 nM in each case.
Regarding `CC#CC(=O)N1CC[C@H](n2nnc3c(O[C@@H](C)CN(C)C)nc4c(F)c(-c5ccc(F)cc5)c(C)cc4c32)C[C@H]1CC#N` [Example 133, 2-((2S,4S)-1-(but-2-ynoyl)-4-(4-(((S)-1-(dimethylamino)propan-2-yl)oxy)-6-fluoro-7-(4-fluorophenyl)-8-methyl-1H-[1,2,3]triazolo[4,5-c]quinolin-1-yl)piperidin-2-yl)acetonitrile], the IC50 (at KRAS G12C; in assay [1] (setting [2])) was no more than 100 nM each time.
For the compound `C=CC(=O)N1CC[C@H](n2cnc3c(N4CC(N(C)C)C4)nc4c(F)c(-c5cccc6ccncc56)c(Cl)cc4c32)C[C@H]1CC#N` (single isomer, unassigned) [Example 71b], the IC50 (on KRAS G12C; in assay [1] (4 hours incubation)) was no more than 100 nM throughout.
In the case of `CC#CC(=O)N1CC[C@H](n2nnc3c(OC[C@@H]4CCCN4C)nc4c(F)c(-c5ccccc5C(F)(F)F)c(C)cc4c32)C[C@H]1CC#N` [Example 162a, 2-((2S,4S)-1-(but-2-ynoyl)-4-(6-fluoro-8-methyl-4-(((S)-1-methylpyrrolidin-2-yl)methoxy)-7-(2-(trifluoromethyl)phenyl)-1H-[1,2,3]triazolo[4,5-c]quinolin-1-yl)piperidin-2-yl)acetonitrile], the IC50 (on KRAS G12C; in assay [1] (setting [2])) was no more than 100 nM each time.
Take `CC#CC(=O)N1CC[C@H](n2nnc3c(N4CC(N(C)C)C4)nc4c(F)c(-c5ccccc5C(F)(F)F)c(C)cc4c32)C[C@H]1CC#N` [Example 166a, 2-((2S,4S)-1-(but-2-ynoyl)-4-(4-(3-(dimethylamino)-azetidin-1-yl)-6-fluoro-8-methyl-7-(2-(trifluoromethyl)-phenyl)-1H-[1,2,3]triazolo-[4,5-c]quinolin-1-yl)piperidin-2-yl)acetonitrile]: the IC50 (on KRAS G12C; in assay [1] (setting [2])) was no more than 100 nM in each case.
Regarding `C=CC(=O)N1CCC(n2cnc3c(=O)n(C)c4c(F)c(-c5cc(O)cc6ccccc56)c(Cl)cc4c32)C1` (racemic) [Example 33, 1-(1-acryloylpyrrolidin-3-yl)-8-chloro-6-fluoro-7-(3-hydroxynaphthalen-1-yl)-5-methyl-1,5-dihydro-4H-imidazo[4,5-c]quinolin-4-one], the IC50 on KRAS G12C was 100 to 1000 nM; in assay [1] (setting [2]) it was 1000 to 5000 nM.
For `CC#CC(=O)N1CC[C@H](n2nnc3c(N4CC(N(C)C)C4)nc4c(F)c(-c5c(C)c(Cl)cc6[nH]ncc56)c(Cl)cc4c32)C[C@H]1CC#N` (single isomer, unassigned) [Example 178a] the same measures were no more than 100 nM and no more than 100 nM.
Turning to `CC#CC(=O)N1CC[C@H](n2nnc3c(OC[C@@H]4CCCN4C)nc4c(Cl)c(-c5cc(F)cc6cccnc56)c(Cl)cc4c32)C[C@H]1CC#N` (single isomer, unassigned) [Example 280a], the IC50 (at KRAS G12C; in assay [1] (setting [2])) was no more than 100 nM in each case.
With `C=CC(=O)N1CCC(n2cnc3c(OC[C@@H]4CCCN4C)nc4c(F)c(-c5cccc(F)c5C)c(Cl)cc4c32)CC1CC#N` (mixture of isomers) [Example 42, 2-(1-acryloyl-4-(8-chloro-6-fluoro-7-(3-fluoro-2-methylphenyl)-4-(((S)-1-methylpyrrolidin-2-yl)methoxy)-1H-imidazo[4,5-c]quinolin-1-yl)piperidin-2-yl)acetonitrile], the IC50 (at KRAS G12C; in assay [1] (setting [2])) was no more than 100 nM in each case.
With `Cc1cccc(-c2c(C)cc3c(nc(O[C@@H](C)CN(C)C)c4nnn([C@H]5CCN(C(=O)/C=C/CF)[C@H](CC#N)C5)c43)c2F)c1C` [Example 143, 2-((2S,4S)-4-(4-(((S)-1-(dimethylamino)propan-2-yl)oxy)-7-(2,3-dimethylphenyl)-6-fluoro-8-methyl-1H-[1,2,3]triazolo[4,5-c]quinolin-1-yl)-1-((E)-4-fluorobut-2-enoyl)piperidin-2-yl)acetonitrile], the IC50 (at KRAS G12C; in assay [1] (setting [2])) was no more than 100 nM each time.
